The values that follow come from patent US20260159500A1, “KINESIN KIF18A INHIBITOR AND USE THEREOF” (SHANGHAI APEIRON THERAPEUTICS COMPANY LIMITED, priority 2022, published 2026).

Where two headings read alike, the source gives them in different places.

The target of test [1] is T1, Human KIF18A (amino acid sequence 1-417) (Homo sapiens, UniProt Q8NI77).
T1 construct: purchased Viva Biotech (Shanghai) Ltd
T1 sequence (Q8NI77 1-417): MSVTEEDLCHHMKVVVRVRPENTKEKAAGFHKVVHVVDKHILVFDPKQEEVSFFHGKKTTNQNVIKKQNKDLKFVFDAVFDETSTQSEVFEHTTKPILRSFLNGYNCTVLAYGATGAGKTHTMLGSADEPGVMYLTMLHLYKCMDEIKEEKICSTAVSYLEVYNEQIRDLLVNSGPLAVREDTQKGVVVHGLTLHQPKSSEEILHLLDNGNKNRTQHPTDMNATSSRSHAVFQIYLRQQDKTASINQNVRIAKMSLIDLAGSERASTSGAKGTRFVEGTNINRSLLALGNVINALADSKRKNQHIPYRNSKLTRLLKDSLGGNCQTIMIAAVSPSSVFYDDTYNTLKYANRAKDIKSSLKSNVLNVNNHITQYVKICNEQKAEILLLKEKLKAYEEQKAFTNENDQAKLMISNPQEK
Nature of the test: Enzymatic activity test (ADP-Glo, microtubule-stimulated KIF18A ATPase). Conditions: 60 μg/mL microtubules, 25 μM ATP, 2.5 nM KIF18A protein, 120 min at ambient temperature, read-out: KIF18A_nM. Type of test: biochemical. The gist of the method: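 Microtubule-stimulated ATPase of KIF18A(1-417) run with 60 μg/mL microtubules, 25 μM ATP and 2.5 nM enzyme, compounds at 0-10 μM final, 120 min at ambient temperature. ADP formed was read by ADP-Glo chemiluminescence after two 30-min reagent incubations.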
A general note: ADP-Glo turns the ADP formed in a reaction into a luminescent signal.

Test [2] has as its system OVCAR3 cells. The test is described as follows: Cell proliferation activity test in OVCAR3 cells (CyQUANT Direct). Type of test: cell-based. Conditions: 3 days incubation, CyQUANT fluorescence detection, read-out: OVCAR-3_IC50_nM. The gist of the method: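 Log-phase cells in RPMI-1640 with 10% FBS were seeded overnight, then exposed to compound at final 0–10 μM (0.2% DMSO) for 3 days at 37 °C, 5% CO2. Proliferation was read by CyQUANT Direct fluorescence after 60 min at 37 °C.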

Test [3] concerns HT29 cells. The test is described as follows: CyQuant cell proliferation activity test in HT29 cells. Type of test: cell-based. The note with it: 2000 cells per well, 3 days incubation, IC50 by XLFIT, read-out: HT29_IC50_nM. The gist of the method:
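Cells seeded at 2000/well in RPMI-1640 with 10% FBS, overnight, then exposed 3 days at 37 °C to compound from 3000 nM top, 3-fold, 9 points, 0.2% DMSO. CyQuant read after 1 h; IC50 from curve fit.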

For the molecule `Nc1ncc2cc(NC(=O)c3ccc(NS(=O)(=O)CCO)cc3N3CCC4(CC3)CC4)cc(N3CCC(F)(F)CC3)c2n1` [Example 84, N-(2-amino-8-(4,4-difluoropiperidin-1-yl)quinazolin-6-yl)-4-((2-hydroxyethyl)sulfonamido)-2-(6-azaspiro[2.5]oct-6-yl)benzamide], the IC50 in test [1] came to 40 nM; in test [2] (Homo sapiens, OVCAR-3, 72 h), 11 nM; in test [3] (Homo sapiens, HT-29, 72 h), 25 nM.
In the case of `CCOC(=O)c1cnc2c(N3CCC(F)(F)CC3)cc(NC(=O)c3ccc(NS(=O)(=O)CCO)cc3N3CCC4(CC3)CC4)cc2c1` [Example 86, Ethyl 6-(2-{6-azaspiro[2.5]octan-6-yl}-4-(2-hydroxyethanesulfonamido)benzoylamino)-8-(4,4-difluoropiperidin-1-yl)quinoline-3-carboxylate], the IC50 in test [1] is 223 nM; in test [2] (Homo sapiens, OVCAR-3, 72 h), 34 nM; in test [3] (Homo sapiens, HT-29, 72 h) it was 56 nM.
Take `O=C(O)c1cnc2c(N3CCC(F)(F)CC3)cc(NC(=O)c3ccc(NS(=O)(=O)CCO)cc3N3CCC4(CC3)CC4)cc2c1` [Example 87, 6-(2-{6-azaspiro[2.5]octan-6-yl}-4-(2-hydroxyethanesulfonamido)benzoylamino)-8-(4,4-difluoropiperidin-1-yl)quinoline-3-carboxylic acid]: the IC50 is 10 nM in test [1]; above 3000 nM in test [2] (Homo sapiens, OVCAR-3, 72 h); above 3000 nM in test [3] (Homo sapiens, HT-29, 72 h).
As for `NC(=O)c1cnc2c(N3CCC(F)(F)CC3)cc(NC(=O)c3ccc(NS(=O)(=O)CCO)cc3N3CCC4(CC3)CC4)cc2c1` [Example 88, 6-(2-{6-azaspiro[2.5]octan-6-yl}-4-(2-hydroxyethanesulfonamido)benzoylamino)-8-(4,4-difluoropiperidin-1-yl)quinoline-3-carboxamide], the IC50 in test [1] came out at 41 nM; in test [2] (Homo sapiens, OVCAR-3, 72 h), 154 nM; in test [3] (Homo sapiens, HT-29, 72 h), 425 nM.
As for `Cc1cc2cc(NC(=O)c3ccc(NS(=O)(=O)CCO)cc3N3CCC4(CC3)CC4)cc(N3CCC(F)(F)CC3)c2nc1N` [Example 89, N-[2-Amino-8-(4,4-difluoropiperidinyl)-3-methyl (6-quinolinyl)](2-(6-azaspiro[2.5]octan-6-yl)-4-{[(2-hydroxyethyl)sulfonyl]amino}phenyl)formamide], the IC50 in test [1] turned out to be 179 nM; in test [2] it was 32 nM; in test [3] it was 32 nM.
For the molecule `Cc1cnc2c(N3CCC(F)(F)CC3)c(F)c(NC(=O)c3ccc(NS(=O)(=O)CCO)cc3N3CCC4(CC3)CC4)cc2c1` [Example 90, 2-{6-azaspiro[2.5]octan-6-yl}-N-[8-(4,4-difluoropiperidin-1-yl)-7-fluoro-3-methylquinolin-6-yl]-4-(2-hydroxyethanesulfonamido)benzamide], the IC50 was found to be 341 nM in test [1]; 96 nM in test [2] (Homo sapiens, OVCAR-3, 72 h); 106 nM in test [3] (Homo sapiens, HT-29, 72 h).
Consider `Nc1cnc2c(N3CCC(F)(F)CC3)c(F)c(NC(=O)c3ccc(NS(=O)(=O)CCO)cc3N3CCC4(CC3)CC4)cc2c1` [Example 91, N-[3-amino-8-(4,4-difluoropiperidin-1-yl)-7-fluoroquinolin-6-yl]-2-{6-azaspiro[2.5]octan-6-yl}-4-(2-hydroxyethanesulfonamido)benzamide], for which the IC50 is 173 nM in test [1]; 13 nM in test [2] (Homo sapiens, OVCAR-3, 72 h); 16 nM in test [3] (Homo sapiens, HT-29, 72 h).
For the molecule `C[C@H](CO)S(=O)(=O)Nc1ccc(C(=O)Nc2cc3cccnc3c(N3CCC(F)(F)CC3)n2)c(N2CCC3(CC2)CC3)c1` [Example 96, 2-{6-Azaspiro[2.5]octan-6-yl}-N-[8-(4,4-difluoropiperidin-1-yl)-1,7-naphthyridin-6-yl]-4-[(2R)-1-hydroxypropane-2-sulfonamido]benzamide], the IC50 in test [1] was found to be 153 nM; in test [2] (Homo sapiens, OVCAR-3, 72 h), 11.3 nM; in test [3] (Homo sapiens, HT-29, 72 h) it was 17 nM.
Turning to `C[C@@H](CO)S(=O)(=O)Nc1ccc(C(=O)Nc2cc3cccnc3c(N3CCC(F)(F)CC3)n2)c(N2CCC3(CC2)CC3)c1` [Example 97, 2-{6-azaspiro[2.5]octan-6-yl}-N-[8-(4,4-difluoropiperidin-1-yl)-1,7-naphthyridin-6-yl]-4-[(2S)-1-hydroxypropane-2-sulfonamido]benzamide], the IC50 is 153 nM in test [1]; 13.9 nM in test [2] (Homo sapiens, OVCAR-3, 72 h); 17 nM in test [3] (Homo sapiens, HT-29, 72 h).
As for `C[C@H](CO)S(=O)(=O)Nc1ccc(C(=O)Nc2cc3cccnc3c(N3CCC(F)(F)CC3)c2F)c(N2CCC3(CC2)CC3)c1` [Example 98, 2-{6-azaspiro[2.5]octan-6-yl}-N-[8-(4,4-difluoropiperidin-1-yl)-7-fluoroquinolin-6-yl]-4-[(2R)-1-hydroxypropane-2-sulfonamido]benzamide], the IC50 in test [1] came out at 166 nM; in test [2] (Homo sapiens, OVCAR-3, 72 h), 17 nM; in test [3] (Homo sapiens, HT-29, 72 h), 21 nM.
For the molecule `C[C@@H](CO)S(=O)(=O)Nc1ccc(C(=O)Nc2cc3cccnc3c(N3CCC(F)(F)CC3)c2F)c(N2CCC3(CC2)CC3)c1` [Example 99, 2-{6-azaspiro[2.5]octan-6-yl}-N-[8-(4,4-difluoropiperidin-1-yl)-7-fluoroquinolin-6-yl]-4-[(2S)-1-hydroxypropane-2-sulfonamido]benzamide], the IC50 worked out at 174 nM in test [1]; 17 nM in test [2] (Homo sapiens, OVCAR-3, 72 h); 22 nM in test [3] (Homo sapiens, HT-29, 72 h).
With `O=C(Nc1ccc(NS(=O)(=O)CCO)cc1N1CCC2(CC1)CC2)c1cc(N2CCC(F)(F)CC2)c2ncccc2c1` [Example 100, N-(2-{6-azaspiro[2.5]octan-6-yl}-4-(2-hydroxyethanesulfonamido)phenyl)-8-(4,4-difluoropiperidin-1-yl)quinoline-6-carboxamide], the IC50 was determined as 24 nM in test [1]; 11 nM in test [2] (Homo sapiens, OVCAR-3, 72 h); 12 nM in test [3] (Homo sapiens, HT-29, 72 h).
